Reference: the NIST ThermoML archive (doi:10.1021/acs.jced.5b00613)

Test: xn = mol fraction of the nth substance listed
Details: Liquid, Vibrating tube method

CCCCCCCCCC [decane] + CCCCCC
mass density [kg/m3]
Details	100 kPa	1000 kPa	5000 kPa	10000 kPa	20000 kPa	30000 kPa	40000 kPa	50000 kPa	60000 kPa
278.15 K, x2 = 0.1992	732.4	733	735.8	739.2	745.6	751.5	756.9	761.9	767
278.15 K, x2 = 0.3968	721.4	722.1	725.1	728.7	735.1	741.4	747	752.2	757.4
278.15 K, x2 = 0.4978	715.4	716	719.2	722.8	729.5	735.7	741.4	746.8	752
278.15 K, x2 = 0.5957	708.5	709.1	712.3	716	722.8	729.3	735.1	740.6	745.8
278.15 K, x2 = 0.7978	692.6	693.3	696.8	700.6	707.9	714.7	720.8	726.4	731.9
298.15 K, x2 = 0.1992	716.8	717.5	720.7	724.6	731.7	738.1	744	749.6	755
298.15 K, x2 = 0.3968	705.6	706.3	709.7	713.8	721	727.9	734.2	739.9	745.4
298.15 K, x2 = 0.4978	699.1	699.6	703.1	707.3	714.8	721.7	728	733.8	739.4
298.15 K, x2 = 0.5957	692.1	692.7	696.2	700.5	708.2	715.2	721.6	727.6	733.3
298.15 K, x2 = 0.7978	675.5	676.3	680.3	684.8	693	700.4	707.2	713.4	719.3
323.15 K, x2 = 0.1992	697.5	698.6	702.3	706.7	714.8	722.1	728.6	734.9	740.7
323.15 K, x2 = 0.3968	685.4	686.5	690.5	695.3	703.7	711.3	718.2	724.6	730.6
323.15 K, x2 = 0.4978	678.2	679.4	683.6	688.3	697.1	704.9	711.9	718.5	724.6
323.15 K, x2 = 0.5957	670.9	672.1	676.3	681.3	690.3	698.3	705.5	712.1	718.4
323.15 K, x2 = 0.7978	653.4	654.6	659.3	664.7	674.3	682.8	690.4	697.4	703.9
348.15 K, x2 = 0.1992	677	678.1	682.5	687.7	697.1	705.3	712.7	719.5	725.8
348.15 K, x2 = 0.3968	–	665.7	670.4	676	685.8	694.4	702.2	709.3	715.9
348.15 K, x2 = 0.4978	–	658.2	663.2	668.8	679	687.8	695.7	703	709.7
348.15 K, x2 = 0.5957	–	650.3	655.5	661.4	671.9	681	689.1	696.4	703.2
348.15 K, x2 = 0.7978	–	631.9	637.5	644	655.3	665	673.6	681.4	688.5
373.15 K, x2 = 0.1992	–	657.7	663	669	679.9	689.3	697.6	705	711.8
373.15 K, x2 = 0.3968	–	645	650.7	657.1	668.5	678.3	687	694.8	701.9
373.15 K, x2 = 0.4978	–	636.7	642.6	649.4	661.3	671.4	680.2	688.2	695.5
373.15 K, x2 = 0.5957	–	628.1	634.4	641.4	653.7	664.1	673.2	681.3	688.8
373.15 K, x2 = 0.7978	–	608.4	615.4	623.2	636.6	647.8	657.5	666.2	674
423.15 K, x2 = 0.1992	–	614.4	622.2	630.6	644.9	656.8	667.1	676.2	684.4
423.15 K, x2 = 0.3968	–	599.1	607.8	617.1	632.5	645.3	656.2	665.7	674.3
423.15 K, x2 = 0.4978	–	589.4	598.8	608.6	624.8	637.9	649	658.8	667.5
423.15 K, x2 = 0.5957	–	578.9	588.9	599.2	616.2	629.8	641.3	651.3	660.2
423.15 K, x2 = 0.7978	–	554.6	566.5	578.7	597.5	612.4	624.8	635.7	645.3
463.15 K, x2 = 0.1992	–	–	586.3	597.8	616.1	630.7	642.9	653.4	662.7
463.15 K, x2 = 0.3968	–	–	570.2	583.3	603.3	618.8	631.7	642.8	652.7
463.15 K, x2 = 0.4978	–	–	559.5	573.5	594.6	610.7	624.1	635.5	645.6
463.15 K, x2 = 0.5957	–	–	547.9	563.1	585.4	602.3	616	627.6	637.9
463.15 K, x2 = 0.7978	–	–	521.1	539.4	565.1	583.8	598.5	611	621.8
